The values below are quoted from earlier work in patent publication US20200214978A1, “Functional chewing gum comprising phytonutrients and adaptogenic herbs” (BrilliantIQ AB, priority 2017, published 2020).

For series [1] the following is noted: oral administration.
The conditions of series [2]: supplementation, group of healthy adults.

Regarding `C[N+](C)(C)CCOP(=O)([O-])OC[C@H](O)CO` [alpha-GPC, L-Alpha glycerolphosphorylcholine], in series [1], the beta waves entry was “significant increase” and the delta waves entry is given as “significant decrease”.
For Phosphatidylserine, the “increase the speed of calculations done in short-term memory” value in series [2] is 20%.
